Measurements taken from patent US5380646A, “Thrombus detection using radiolabelled disintegrins” (Temple University of the Commonwealth System of Higher …, priority 1992, dated 1995).
Ends that are not written are not given here.

Assays:
[1] = system: thrombi; conditions: literature, in words; cited from earlier work
[2] = system: pulmonary emboli; experiment: Comparison of short Arg-Gly-Asp peptides to disintegrins in dog, pulmonary emboli (Example 7); format: in vivo; conditions: PE; 4 hrs
Method: In this example of thrombi and emboli in a dog, the radioactivity target:background ratios were determined qualitatively by imaging and quantitatively by tissue sampling. Higher ratios are due to the increased target specificity of the radiolabel carrier. Significant measurements presented in this study are the relative ratio of counts from the target tissue (thrombus and pulmonary emboli) to background entities (muscle, vessels blood etc.). […] Thrombus uptake data, such as the percent injected radiolabel dose per gram of thrombus (% id/g thrombus), thrombus-to-blood (=100×% id/g thrombus.div.%id/g blood) and thrombus-to-muscle ratios (=100×%id/g thrombus.div.%id/g muscle) were calculated from the tissue sample count data discussed below.
To create a model of pulmonary embolus, an incision was made in the corresponding location on the left leg of the dog. […] The catheter and guide wire were withdrawn. The incision was closed with 2-0 silk.
Twenty-four hours after placement of the coils, anesthesia was induced as before. The urinary bladder was catheterized to collect urine. A large field of view gamma camera (General Electric, Milwaukee, Wis.) was positioned over the dog for an anterior view of the chest. The camera was fitted with a low-energy all-purpose collimator and was set to acquire the 159 keV photopeak of ^123 I with a 20% window. A Macintosh IIx computer was interfaced to the camera using a NucLear Mac A/D board and software (Scientific Imaging, Denver, Colo.). […] The ^125 -fibrinogen served as a control, since it has been studied previously in this dog model.
[…] A blood sample was drawn and 0.3 cc was transferred into each of two pre-weighed tubes. The animal was euthanized with intracardiac injection of KCl saturated solution. The vein segment containing the thrombus was carefully removed and dissected to separate the thrombus, coil, Dacron fibers and vessel wall. Each of these samples was placed on tared paper and weighed (wet weight). Similar size samples of control vessel (femoral vein from the control side) and skeletal muscle (from the thigh) were also collected and weighed. The "abnormal vessel" was the sample of vein from which the thrombus was dissected. The "control vessel" was the identical control vessel from the opposite leg. The control vessel Was not injured and therefore should not have significant uptake of radiotracer. Each sample was then placed in a counting tube and counted along with a saved aliquot of the injected dose as a standard, in a well counter. After counting, samples were held for decay of ^123 I and recounted in a lower energy window to collect the counts from ^125 I.
The imaging ability of the small peptides was compared to that of the ^123 I-labelled disintegrins in the Example 6 dog model. […]

[3] = system: femoral clot; experiment: Comparison of short Arg-Gly-Asp peptides to disintegrins in dog, femoral clot (Example 7); format: in vivo; conditions: T:B at least 4:1 in extremities, 9:1 in chest
Method: In this example of thrombi and emboli in a dog, the radioactivity target:background ratios were determined qualitatively by imaging and quantitatively by tissue sampling. […] Significant measurements presented in this study are the relative ratio of counts from the target tissue (thrombus and pulmonary emboli) to background entities (muscle, vessels blood etc.). […] Thrombus uptake data, such as the percent injected radiolabel dose per gram of thrombus (% id/g thrombus), thrombus-to-blood (=100×% id/g thrombus.div.%id/g blood) and thrombus-to-muscle ratios (=100×%id/g thrombus.div.%id/g muscle) were calculated from the tissue sample count data discussed below.
A female mongrel dog weighing 40 lbs was fasted overnight. The dog was sedated with an intramuscular injection of a mixture of ketamine hydrochloride and acepromazine maleate. General anesthesia was induced with intravenous pentobarbital (20 mg/kg). After shaving and washing the dog's skin, a 3-cm incision was made in the right groin area. Using blunt dissection, a segment of the femoral vein was located and freed from surrounding tissue for a length of 1 inch. […]
At 2 hours and 45 min. post injection, deep anesthesia was induced by intravenous administration of 30 mg/kg pentobarbital. […] Each sample was then placed in a counting tube and counted along with a saved aliquot of the injected dose as a standard, in a well counter. […]

[4] = system: pulmonary emboli; conditions: literature, in words; cited from earlier work

urokinase
ability to image or detect thrombi [1]: only with marginal success

^123 I-eristostatin: eristostatin, disintegrin from Eristocophis macmahoni, radioiodinated with ^123 I (QEEPCATGPCCRRCKFKRAGKVCRVARGDWNDDYCTGKSCDCPRNPWN; cysteine pairing not given here; also: radioiodinated with 123I, place not given here)
AV:CV abnormal (injured) vessel:control vessel label ratio [2]: 1.2 | Percent Injected Dose Per Gram of Thrombus [2]: 0.1205 % id/g | T:B thrombus:blood ratio [2]: 8.6 | T:M thrombus:muscle ratio [2]: 40.6 | target:background ratios versus medically acceptable range for imaging [3]: medically significant background ratios for imaging of thrombi

Heparin [reference compound]
ability to image or detect thrombi [1]: not been found successful as an agent for imaging thrombi

streptokinase
ability to image or detect thrombi [1]: only with marginal success

Fibronectin
ability to image pulmonary emboli [4]: not been useful for imaging pulmonary emboli
